Reference: PubChem BioAssay (NCI)
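96-well plates; 48 h exposure; 5 concentrations. Endpoints by linear interpolation between flanking doses. Not reached: highest tested concentration assigned. The concentration for full growth arrest is given as TGI.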

Legend:
Assay in all cases: NCI-60 cell line screen, 48 h
SNB-75 CNS = tested on: SNB-75 CNS
KM12 colon = tested on: KM12 colon
NCI-H522 lung = tested on: NCI-H522 lung
HS 578T breast = tested on: HS 578T breast
SK-MEL-28 melanoma = tested on: SK-MEL-28 melanoma
TK-10 renal = tested on: TK-10 renal
HCT-116 colon = tested on: HCT-116 colon
UO-31 renal = tested on: UO-31 renal
OVCAR-8 ovarian = tested on: OVCAR-8 ovarian
A549 NSCLC = tested on: A549 NSCLC
NCI-H23 lung = tested on: NCI-H23 lung
HOP-62 NSCLC = tested on: HOP-62 NSCLC
HL-60(TB) leukemia = tested on: HL-60(TB) leukemia
SR leukemia = tested on: SR leukemia
HT29 colon = tested on: HT29 colon
NCI/ADR-RES ovarian = tested on: NCI/ADR-RES ovarian
OVCAR-4 ovarian = tested on: OVCAR-4 ovarian
MDA-MB-435 = tested on: MDA-MB-435
SNB-19 CNS = tested on: SNB-19 CNS
786-0 renal = tested on: 786-0 renal
M14 melanoma = tested on: M14 melanoma
NCI-H226 lung = tested on: NCI-H226 lung
UACC-257 melanoma = tested on: UACC-257 melanoma
EKVX NSCLC = tested on: EKVX NSCLC
UACC-62 melanoma = tested on: UACC-62 melanoma
SF-268 CNS = tested on: SF-268 CNS
DU-145 prostate = tested on: DU-145 prostate
MDA-N = tested on: MDA-N
HOP-92 NSCLC = tested on: HOP-92 NSCLC
OVCAR-3 ovarian = tested on: OVCAR-3 ovarian
HCT-15 colon = tested on: HCT-15 colon
OVCAR-5 ovarian = tested on: OVCAR-5 ovarian
MOLT-4 leukemia = tested on: MOLT-4 leukemia
LOX IMVI melanoma = tested on: LOX IMVI melanoma
MDA-MB-231 breast = tested on: MDA-MB-231 breast
SN12C renal = tested on: SN12C renal
U251 CNS = tested on: U251 CNS
HCC-2998 colon = tested on: HCC-2998 colon
CCRF-CEM leukemia = tested on: CCRF-CEM leukemia
RXF 393 renal = tested on: RXF 393 renal
SW-620 colon = tested on: SW-620 colon
ACHN renal = tested on: ACHN renal
MCF7 breast = tested on: MCF7 breast
CAKI-1 renal = tested on: CAKI-1 renal
BT-549 breast = tested on: BT-549 breast
MALME-3M melanoma = tested on: MALME-3M melanoma
NCI-H460 lung = tested on: NCI-H460 lung
SK-OV-3 ovarian = tested on: SK-OV-3 ovarian
T-47D breast = tested on: T-47D breast
RPMI-8226 leukemia = tested on: RPMI-8226 leukemia
SK-MEL-2 melanoma = tested on: SK-MEL-2 melanoma
IGROV1 ovarian = tested on: IGROV1 ovarian
SF-295 CNS = tested on: SF-295 CNS
PC-3 prostate = tested on: PC-3 prostate
K-562 leukemia = tested on: K-562 leukemia
A498 renal = tested on: A498 renal
COLO 205 colon = tested on: COLO 205 colon
SK-MEL-5 melanoma = tested on: SK-MEL-5 melanoma
SF-539 CNS = tested on: SF-539 CNS

What does the source list for `CN1CCC23c4c5ccc(Oc6nnnn6-c6ccccc6)c4OC2c2[nH]c4ccccc4c2CC3(O)C1C5` (centres undefined)?
TGI (SNB-75 CNS): 7.66 µM; TGI (KM12 colon): 7.68 µM; TGI (NCI-H522 lung): 4.01 µM; TGI (HS 578T breast): 33.9 µM; TGI (SK-MEL-28 melanoma): 4.73 µM; TGI (TK-10 renal): 3.35 µM; TGI (HCT-116 colon): 3.45 µM; TGI (UO-31 renal): 3.18 µM; TGI (OVCAR-8 ovarian): 9.6 µM; TGI (A549 NSCLC): 13.1 µM; TGI (NCI-H23 lung): 33.7 µM; TGI (HOP-62 NSCLC): 12.8 µM; TGI (HL-60(TB) leukemia): 3.69 µM; TGI (SR leukemia): 3.72 µM; TGI (HT29 colon): 5.3 µM; TGI (NCI/ADR-RES ovarian): 19.7 µM; TGI (OVCAR-4 ovarian): 7.53 µM; TGI (MDA-MB-435): 8.41 µM; TGI (SNB-19 CNS): 22.4 µM; TGI (786-0 renal): 3.33 µM; TGI (M14 melanoma): 3.38 µM; TGI (NCI-H226 lung): 27.6 µM; TGI (UACC-257 melanoma): 3.32 µM; TGI (EKVX NSCLC): 24.2 µM; TGI (UACC-62 melanoma): 3.52 µM; TGI (SF-268 CNS): 21.2 µM; TGI (DU-145 prostate): 19.6 µM; TGI (MDA-N): 3.26 µM; TGI (HOP-92 NSCLC): 7.71 µM; TGI (OVCAR-3 ovarian): 22.5 µM; TGI (HCT-15 colon): 6.36 µM; TGI (OVCAR-5 ovarian): 32.6 µM; TGI (MOLT-4 leukemia): 5.33 µM; TGI (LOX IMVI melanoma): 3.75 µM; TGI (MDA-MB-231 breast): 4.16 µM; TGI (SN12C renal): 8.67 µM; TGI (U251 CNS): 3.65 µM; TGI (HCC-2998 colon): 3.3 µM; TGI (CCRF-CEM leukemia): 4.19 µM; TGI (RXF 393 renal): 5.67 µM; TGI (SW-620 colon): 6.14 µM; TGI (ACHN renal): 3.52 µM; TGI (MCF7 breast): 5.12 µM; TGI (CAKI-1 renal): 4.77 µM; TGI (BT-549 breast): 36.7 µM; TGI (MALME-3M melanoma): 3.11 µM; TGI (NCI-H460 lung): 3.66 µM; TGI (SK-OV-3 ovarian): 25.4 µM; TGI (T-47D breast): 23.1 µM; TGI (RPMI-8226 leukemia): 6.06 µM; TGI (SK-MEL-2 melanoma): 3.28 µM; TGI (IGROV1 ovarian): 23 µM; TGI (SF-295 CNS): 15.3 µM; TGI (PC-3 prostate): 15 µM; TGI (K-562 leukemia): 3.86 µM; TGI (A498 renal): 6.3 µM

`COc1ccc(CNc2ccn(C3OC(CO)C(O)C3O)c(=O)n2)cc1` (centres undefined) was tested. Which TGI (KM12 colon) did it give?
The TGI was > 100 µM.

What about the TGI (NCI-H522 lung) of the same compound?
Its TGI is > 100 µM.

And the TGI (HS 578T breast)?
The TGI was > 100 µM.

And the TGI (SK-MEL-28 melanoma)?
The TGI was > 100 µM.

What about the TGI (TK-10 renal) of the same compound?
The TGI was > 100 µM.

What about the TGI (HCT-116 colon) of the same compound?
Its TGI is > 100 µM.

And the TGI (UO-31 renal)?
The TGI was > 100 µM.

What about the TGI (OVCAR-8 ovarian) of the same compound?
The TGI was > 100 µM.

What about the TGI (A549 NSCLC) of the same compound?
The TGI was > 100 µM.

And the TGI (NCI-H23 lung)?
Its TGI is > 100 µM.

What about the TGI (HOP-62 NSCLC) of the same compound?
Its TGI is > 100 µM.

And the TGI (HL-60(TB) leukemia)?
Its TGI is 83.3 µM.

What about the TGI (SR leukemia) of the same compound?
The TGI was > 100 µM.

What about the TGI (HT29 colon) of the same compound?
The TGI was > 100 µM.

And the TGI (NCI/ADR-RES ovarian)?
The TGI was > 100 µM.

And the TGI (OVCAR-4 ovarian)?
Its TGI is > 100 µM.

And the TGI (COLO 205 colon)?
The TGI was > 100 µM.

And the TGI (MDA-MB-435)?
The TGI was > 100 µM.

What about the TGI (SNB-19 CNS) of the same compound?
Its TGI is > 100 µM.

And the TGI (786-0 renal)?
The TGI was > 100 µM.

And the TGI (SK-MEL-5 melanoma)?
Its TGI is > 100 µM.

And the TGI (M14 melanoma)?
The TGI was > 100 µM.

What about the TGI (NCI-H226 lung) of the same compound?
Its TGI is > 100 µM.

What about the TGI (UACC-257 melanoma) of the same compound?
Its TGI is > 100 µM.

What about the TGI (EKVX NSCLC) of the same compound?
Its TGI is > 100 µM.

And the TGI (UACC-62 melanoma)?
The TGI was > 100 µM.

What about the TGI (SF-268 CNS) of the same compound?
Its TGI is > 100 µM.

And the TGI (DU-145 prostate)?
Its TGI is > 100 µM.

What about the TGI (MDA-N) of the same compound?
Its TGI is > 100 µM.

And the TGI (HOP-92 NSCLC)?
The TGI was > 100 µM.

What about the TGI (OVCAR-3 ovarian) of the same compound?
Its TGI is > 100 µM.

What about the TGI (HCT-15 colon) of the same compound?
Its TGI is > 100 µM.

And the TGI (OVCAR-5 ovarian)?
The TGI was > 100 µM.

What about the TGI (MOLT-4 leukemia) of the same compound?
Its TGI is > 100 µM.

What about the TGI (LOX IMVI melanoma) of the same compound?
Its TGI is > 100 µM.

And the TGI (SF-539 CNS)?
Its TGI is > 100 µM.

What about the TGI (MDA-MB-231 breast) of the same compound?
Its TGI is > 100 µM.

And the TGI (SN12C renal)?
Its TGI is > 100 µM.

And the TGI (U251 CNS)?
Its TGI is > 100 µM.

What about the TGI (HCC-2998 colon) of the same compound?
Its TGI is > 100 µM.

And the TGI (CCRF-CEM leukemia)?
Its TGI is > 100 µM.

And the TGI (RXF 393 renal)?
The TGI was > 100 µM.

What about the TGI (SW-620 colon) of the same compound?
The TGI was > 100 µM.

And the TGI (ACHN renal)?
The TGI was > 100 µM.

And the TGI (MCF7 breast)?
The TGI was > 100 µM.

And the TGI (CAKI-1 renal)?
Its TGI is > 100 µM.

And the TGI (BT-549 breast)?
Its TGI is > 100 µM.

What about the TGI (MALME-3M melanoma) of the same compound?
Its TGI is > 100 µM.

And the TGI (NCI-H460 lung)?
The TGI was > 100 µM.

What about the TGI (SK-OV-3 ovarian) of the same compound?
The TGI was > 100 µM.

And the TGI (T-47D breast)?
Its TGI is 94.7 µM.

What about the TGI (RPMI-8226 leukemia) of the same compound?
The TGI was > 100 µM.

What about the TGI (SK-MEL-2 melanoma) of the same compound?
The TGI was > 100 µM.

And the TGI (IGROV1 ovarian)?
Its TGI is > 100 µM.

And the TGI (SF-295 CNS)?
Its TGI is > 100 µM.

What about the TGI (PC-3 prostate) of the same compound?
Its TGI is > 100 µM.

And the TGI (K-562 leukemia)?
Its TGI is > 100 µM.

And the TGI (A498 renal)?
Its TGI is > 100 µM.
